Results from patent US20090312414A1, “Treatment Of Lower Urinary Tract Dysfunction With CB2-Receptor-Selective Agonists” (priority 2008, published 2009).

How the values were obtained:
[1] = test system: conscious rats with partial urethral obstruction; assay: Cystometry in conscious rats with partial urethral obstruction (PUO); assay type: in vivo, rat; conditions: 3 mg/kg IP daily for 2 weeks
Text: The effect of chronic treatment with the compound of Formula I on bladder function was studied by cystometry in conscious rats with partial urethral obstruction (“PUO”) after 2 weeks of treatment with the compound of Formula I. Protocols for animals and bladder catheter implantation were as in Example 4 above.
The bladder and urethra was exposed via a mid-line incision of the lower abdom. A 19 gauge needle (0.9 mm OD) was placed on the surface of the urethra, and a 3-0 black mono nylon suture was firmly tied over the urethra and the ligation was left in place for the duration of the study. The needle was then removed and the diameter and position of the ligature was then inspected to ensure that a partial urethral obstruction was obtained. The abdominal cavity was then closed in layers with single cross-sutures (5-0 black polyfilament nylon suture). Animals were then housed in individual cages for two weeks before cystometry were performed.
The appropriate solution of the compound of Formula I was prepared on the day of the experiment using PBS as the vehicle. A stock solution of 10 mg/ml in PBS was used and the animals were administered daily, weight-controlled doses of 3 mg/kg compound of Formula I or vehicle by intraperitoneal (“IP”) injection over the 2 week treatment period, starting on the day of PUO surgery.
Cystometry was performed without anesthesia three days after the implantation of bladder catheters in rats with PUO, and after two weeks of daily treatment with the compound of Formula I. The conscious rats were placed in metabolic cages without restraint and the bladder catheters were connected via a T-tube to a pressure transducer (P23 DC; Statham Instruments Inc., Oxnard, Calif.) and a microinjection pump (CMA 100; Carnegie Medicine AB, Solna, Sweden). Micturition volumes were recorded with a fluid collector connected to a force displacement transducer (FT 03 D, Grass Instrument Co., Quincy, Mass.). Room-temperature saline was infused into the bladder continuously at a rate of 10 ml/h. Bladder size increases several-fold in rats subjected to PUO. Therefore, an infusion rate of 20 ml/h was used during cystometry in these animals. Pressures and micturition volumes were recorded continuously with Acq Knowledge 3.8.1 software and a MP100 data acquisition system (Biopac Syst. Inc. Santa Barbara, Calif.) connected to a Grass polygraph (Model 7E, Grass Instrument Co). At the beginning of cystometry, the bladder was emptied via the bladder catheter.
The following urodynamic parameters were investigated: micturition pressure (“MP;” maximum bladder pressure during micturition), threshold pressure (“ThP”; bladder pressure at start of detrusor contraction), flow pressure (“FP”; bladder pressure when urethra opens), MI (time between two micturitions), micturition volume (“MV”; volume of the expelled urine), and RV (volume left in bladder after a micturition). At least a 30-minute period with stable and reproducible micturitions was recorded before drug administration and used as baseline value, to be compared with a corresponding stable 30-minute period after drug administration. For multiple comparisons, a one-way analysis of variance for repeated measures (Holm-Sidak) was used. Pairwise and non-pairwise comparisons were made by Student's t-test. All statistical calculations are based on the number of individual animals, and significant differences are accepted when p<0.05.
As used herein, the term “chronic” means that the animals were dosed once/day for 14 days, prior to taking the cystometry measurements. For specific investigation and analysis of NVCs, the PUO should beneficially be removed approximately 2-3 days prior to the urodynamic investigation. […]

[2] = test system: isolated detrusor from rats with partial urethral obstruction; assay: Carbachol-induced contractions in bladder strips from PUO rats; assay type: ex vivo, rat; conditions: strips from PUO rats treated for 2 weeks
Description: The effect of chronic treatment with the compound of Formula I was studied in contractility studies with isolated bladder strips from rats with PUO after 2 weeks of treatment with the compound of Formula I.
Bladder strips (2×2×6 mm) were dissected from PUO rat bladders. Silk ligatures were applied at both ends of the preparations which then were mounted on metal prongs in 5 ml aerated (95% O2 and 5% CO2) tissue baths (37° C.) containing Krebs solution. Mechanical activity was registered with Grass FT 03C force transducers connected to a Grass Polygraph model 7E. The preparations were stretched to a tension of approximately 10 mN and left to equilibrate for 45 minutes to attain a stable resting tonus. To establish the viability of the preparations and to determine a standard contractile level, preparations were exposed to a 60 mM K^+ Krebs solution. The effects of cumulative addition of carbachol, a non-selective muscarininc agonist (1 nM-0.1 mM), were studied in strip preparations from vehicle-treated and compound of Formula I-treated rats with PUO.
Transmural activation of nerves was performed with two platinum electrodes, placed in parallel to the sides of the strips in the organ baths. […] All contractile responses were expressed as a percentage of the contraction elicited by 60 mM K^+ Krebs solution. […]

Q: With `CCCCCCC(C)(C)c1cc(O)c([C@H]2CC(=O)[C@H]3C[C@@H]2C3(C)C)c(OC(=O)/C=C/C(=O)O)c1` [Formula I] as the molecule, how does the “Incidence of NVC” value ([1]; PUO rats) read?
A: The value was 20%.

Q: What about the Mean bladder weight ([1]; PUO rats, n=10, not significant) of the same molecule?
A: Its Mean bladder weight is 0.88 ± 0.13 g.

Q: What about the “Micturition pressure (MP)” value ([1]; PUO rats, ns) of the same molecule?
A: Its value is 116.0±17.4 cmH2O.

Q: And the “Mean flow pressure (FP)” value ([1]; PUO rats, p<0.002)?
A: The value was 87.4±8.7 cmH2O.

Q: And the “Mean threshold pressure (ThP)” value ([1]; PUO rats, p<0.002)?
A: The value was 39.4±4.9 cmH2O.

Q: What about the “Micturition interval (MI)” value ([1]; PUO rats, p<0.01) of the same molecule?
A: The value was 84 ± 10 s.

Q: What about the “Micturition volume (MV)” value ([1]; PUO rats, p<0.02) of the same molecule?
A: Its value is 0.43 ± 0.07 mL.

Q: And the “Residual volume (RV)” value ([1]; PUO rats, p<0.02)?
A: Its value is 0.09 ± 0.05 mL.

Q: And the Micturition frequency ([1]; PUO rats, p<0.03)?
A: Its Micturition frequency is 53±11 micturitions per hour.

Q: And the “PUO rats exhibiting non-voiding contractions (NVCs)” value ([1]; p<0.04)?
A: Its value is 2 out of 10.

Q: And the “Carbachol-induced detrusor contractions vs vehicle-treated PUO rats” value ([2]; carbachol 1 nM to 1 μM)?
A: The value was “no differences”.

Q: And the “Maximal response to carbachol vs vehicle-treated PUO rats” value ([2]; simultaneous curve fitting, p<0.0008)?
A: The value was “significant increase”.
